Data: patent US8202863B2 (Aventis Pharmaceuticals Inc., priority 2005, dated 2012)

Target: human h-PGDS (Homo sapiens, UniProt O60760)
Assay: Enzyme Immunoassay (EIA) method (Assay 2)
Type: biochemical
Details: assigned
Text: The compounds of the present invention can be tested for enzymatic inhibiting activity against PGD2 Synthase according to either one of the following assays.
Assay 2: Enzyme Immunoassay (EIA) Method
• a. Preparation of 0.1M K2HPO4/KH2PO4 buffer (pH ˜7.4) • Prepare 0.1 M KH2PO4 from 1M KH2PO4 (Sigma, Cat# P-8709) • Prepare 0.1 M K2HPO4 from powder of K2HPO4 (Fisher, BP363-500) • Mix 0.1 M K2HPO4 with 0.1 M KH2PO4 to adjust pH to 7.4. • b. Preparation of 0.5% γ-globulin • Add 0.1 g of γ-globulin (Sigma, Cat# G-5009) to 20 mL 0.1 M K2HPO4/KH2PO4 buffer (pH ˜7.4) and make 1-ml/vial aliquots and store in −80° C. • c. Preparation of 100 mM GSH • Add 307 mg of GSH (Sigma, Cat# G-6529) to 10 mL 0.1 M K2HPO4/KH2PO4 buffer (pH ˜7.4) and store at −80° C. • d. Preparation of Reaction buffer: • 198 mL of 0.1M K2HPO4/KH2PO4 buffer (pH ˜7.4) • 2 mM GSH—Prepared from 100 mM GSH • 0.4 g Glycerol • 2 mL of 0.5% γ-globulin • Add 0.4 g of glycerol and 2 mL of 0.5% γ-globulin to 198 mL of 0.1 M K2HPO4/KH2PO4 • buffer (pH7.4). • Add 0.4 mL of 100 mM GSH to 19.6 ml reaction buffer before the assay (enough for two 96-well plates). • e. Preparation of FeCl2/citric acid stopping solution: (8 mg/mL FeCl2, 0.1 M citric acid) • Add 40 mg fresh FeCl2 (IGN, Cat# 158046) to 5 ml 0.1 M citric acid (Sigma, Cat# C0759). • f. Preparation of MOX reagent: • 10% EtOH-Add 1 mL of EtOH to 9 mL of ultra pure H2O • Dissolve 0.1 g of methoxylamine (Cayman, Cat# 400036/) in 10% EtOH (10 mL). • Add 0.82 g of sodium acetate (Cayman, Cat#400037) to MOX solution and dissolve. II. Materials and Method • Dimethylsulfoxide (DMSO; Sigma; Cat# D2650) • Prostaglandin D2-MOX express EIA kit (Caymen Chemical, Catalog No. 500151)
Before the assay, cool down 10 mL of acetone in polypropylene tubes and empty 96 well plates in ice. All the procedures except compound dilution are performed on ice.
• 1. Dilute Compound in DMSO
• 2. Dilute 2 μL of each above concentration of compound to 38 μL of reaction buffer in 96-well plates and mix. IV. Enzyme and Substrate Solution Preparation • 1. Preparation of 0.39 ng/μL enzyme solution (0.35 ng/μL at final after compound addition). • Mix 4 μL of 4 mg/mL human h-PGDS with 396 μL of reaction buffer (to give enzyme concentration 40 μg/mL). Add 46.8 μL of 40 μg/mL h-PGDS to 4.753 mL of reaction buffer to give a total volume of 4.8 mL • 2. Preparation of Substrate Solution (PGH2): Add 0.375 mL of 0.1 mg/mL of PGH2 to 1.625 mL acetone. V. Enzyme Reaction: • 1. Add 60 μL of enzyme solution to compound well and positive control (without compound) in U-bottom polypropylene plate on ice. • 2. Add 60 μL of reaction buffer and 6.6 μL of 5% DMSO in reaction buffer into negative control wells in the plate. • 3. Add 6.6 μL of diluted compound in reaction buffer to the compound wells and mix. • 4. Add 6.6 μL of 5% DMSO in reaction buffer to the positive control well. • 5. Incubate the plate in ice for at least 30 min. • 6. Add 20 μL of substrate (PGH2) solution to compound, negative and positive control wells in the U-bottom 96 well plate on ice. • 7. Dry the plate in cold room for about 25-28 min. • 8. Pipette 45 μL of enzyme solution (above) into 96-wells with dried PGH2 and mix 3 times. Incubate on the ice for 1 min. • 9. Add 45 μL of FeCl2 solution into each wells and mix. • 10. Add 90 μL of MOX solution and mix. • 11. Incubate for 30 min at 60° C. • 12. Dilute the samples 2500× with EIA buffer. VI. EIA assay • Perform the assay according to the procedure in EIA kit provided by Cayman. […]

human h-PGDS, sequence (O60760 whole entry): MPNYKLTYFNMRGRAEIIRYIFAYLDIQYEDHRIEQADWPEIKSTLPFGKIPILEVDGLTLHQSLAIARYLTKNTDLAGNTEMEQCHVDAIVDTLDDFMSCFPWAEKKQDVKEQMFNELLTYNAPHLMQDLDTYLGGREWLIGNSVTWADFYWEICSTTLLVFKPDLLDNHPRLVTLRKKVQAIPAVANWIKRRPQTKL

Compound	IC50
CN(C)S(=O)(=O)CCNC(=O)c1cnc(-c2ccccc2)nc1 [Example 109, 2-Pheny-pyrimidine-5-carboxylic acid (2-dimethylsulfamoyl-ethyl)-amide]	82 nM
O=C(NCc1cccc(S(=O)(=O)NCCN2CCOCC2)c1)c1cnc(-c2cccc(F)c2)nc1 [Example 56]	37 nM
Cc1nc(-c2cccc(F)c2)ncc1C(=O)NCc1cccc(CNS(C)(=O)=O)c1 [Example 68, 2-(3-Fluoro-phenyl)-4-methyl-pyrimidine-5-carboxylic acid 3-(methanesulfonylamino-methyl)-benzylamide]	48.5 nM
CNS(=O)(=O)c1cccc(CNC(=O)c2cnc(-c3cccc(F)c3)nc2)c1 [Example 97, 2-(3-Fluoro-phenyl)-pyrimidine-5-carboxylic acid 3-methylsulfamoyl-benzylamide]	9.5 nM
CNS(=O)(=O)c1cccc(CNC(=O)c2cnc(-c3cccc(F)c3)nc2C)c1 [Example 85, 2-(3-Fluoro-phenyl)-4-methyl-pyrimidine-5-carboxylic acid 3-methylsulfamoyl-benzylamide]	106 nM
CNS(=O)(=O)c1cccc(CNC(=O)c2cnc(-c3cc(F)cc(F)c3)nc2)c1 [Example 40, 2-(3,5-Difluoro-phenyl)-pyrimidine-5-carboxylic acid 3-methylsulfamoyl-benzylamide]	49 nM
NS(=O)(=O)c1ccc(NC(=O)c2cnc(-c3ccccc3)nc2)cc1 [Example 30, 2-Phenyl-pyrimidine-5-carboxylic acid (4-sulfamoyl-phenyl)-amide]	5 nM
Cc1nc(-c2cccc(F)c2)ncc1C(=O)NCc1cccc(CS(=O)(=O)NC(C)C)c1 [Example 71, 2-(3-Fluoro-phenyl)-4-methyl-pyrimidine-5-carboxylic acid 3-(isopropylsulfamoyl-methyl)-benzylamide]	34 nM
CN1CCC(NC(=O)c2cnc(-c3ccccc3)nc2)CC1 [Example 38, 2-Phenyl-pyrimidine-5-carboxylic acid (1-methyl-piperidin-4-yl)-amide]	96 nM
NS(=O)(=O)c1cccc(CNC(=O)c2cnc(-c3cccc(F)c3)nc2)c1 [Example 55, 2-(3-Fluoro-phenyl)-pyrimidine-5-carboxylic acid 3-sulfamoyl-benzylamide]	31 nM
O=C(Nc1nc(-c2ccccc2)ns1)c1cnc(-c2ccccc2)nc1 [Example 110, 2-Phenyl-pyrimidine-5-carboxylic acid (3-phenyl-[1,2,4]thiadiazol-5-yl)-amide]	30 nM
O=C(NCc1cccc(S(=O)(=O)NC2CC2)c1)c1cnc(-c2cccc(F)c2)nc1 [Example 48, 2-(3-Fluoro-phenyl)-pyrimidine-5-carboxylic acid 3-cyclopropylsulfamoyl-benzylamide]	132 nM
CCNS(=O)(=O)c1cccc(CNC(=O)c2cnc(-c3cccc(F)c3)nc2)c1 [Example 45, 2-(3-Fluoro-phenyl)-pyrimidine-5-carboxylic acid 3-ethylsulfamoyl-benzylamide]	58 nM
NS(=O)(=O)c1ccc(CNC(=O)c2cnc(-n3cccn3)nc2)cc1 [Example 117, 2-Pyrazol-1-yl-pyrimidine-5-carboxylic acid 4-sulfamoyl-benzylamide]	266 nM
CN(C)CCNS(=O)(=O)c1cccc(CNC(=O)c2cnc(-c3cccc(F)c3)nc2)c1 [Example 63, 2-(3-Fluoro-phenyl)-pyrimidine-5-carboxylic acid 3-(2-dimethylamino-ethylsulfamoyl)-benzylamide]	45 nM
CC(C)(CO)NS(=O)(=O)c1cccc(CNC(=O)c2cnc(-c3cccc(F)c3)nc2)c1 [Example 54, 2-(3-Fluoro-phenyl)-pyrimidine-5-carboxylic acid 3-(2-hydroxy-1,1-dimethyl-ethylsulfamoyl)-benzylamide]	60 nM
O=C(NCc1cccc(S(=O)(=O)NCCCO)c1)c1cnc(-c2cccc(F)c2)nc1 [Example 49, 2-(3-Fluoro-phenyl)-pyrimidine-5-carboxylic acid 3-(3-hydroxy-propylsulfamoyl)-benzylamide]	22 nM
NS(=O)(=O)CCNC(=O)c1cnc(-c2ccccc2)nc1 [Example 108, 2-Pheny-pyrimidine-5-carboxylic acid (2-sulfamoyl-ethyl)-amide]	55 nM
O=C(NCc1ccccc1)c1cnc(-c2ccccc2)nc1 [Example 1, 2-Phenyl-pyrimidine-5-carboxylic acid benzylamide]	10 nM
CN(C)CC(C)(C)CNS(=O)(=O)c1cccc(CNC(=O)c2cnc(-c3cccc(F)c3)nc2)c1 [Example 65, 2-(3-Fluoro-phenyl)-pyrimidine-5-carboxylic acid 3-(3-dimethylamino-2,2-dimethyl-propylsulfamoyl)-benzylamide]	35 nM
COCCCNS(=O)(=O)c1cccc(CNC(=O)c2cnc(-c3cccc(F)c3)nc2)c1 [Example 51, 2-(3-Fluoro-phenyl)-pyrimidine-5-carboxylic acid 3-(3-methoxy-propylsulfamoyl)-benzylamide]	37 nM
Cc1nc(-c2ncc(C(=O)NC3CCOCC3)cn2)cs1 [Example 118, 2-(2-Methyl-thiazol-4-yl)-pyrimidine-5-carboxylic acid (tetrahydro-pyran-4-yl)-amide]	82 nM
